Patent EP1016405A2, “Arylating medicaments” (Radopath Pharmaceuticals International Limited, priority 1993, dated 1994)
Values joined by “and” are separate entries in the source; they are usually repeats but may differ in a detail not shown here. Equal values may be shown once. Read-outs that look alike come from different tables or passages of the source.

What was measured:
in vivo = settings: mouse, ip
in vitro = settings: CC50 (Toxicity)
HIV-1IIIB = assay: Acute infection assay against HIV-1IIIB; type: cell-based, human immunodeficiency virus; settings: for IC50: Human immunodeficiency virus 1, IIIB, read-out: IC50 (Antiviral)
[1] = system: M5076 reticulum cell sarcoma; assay: Anti-tumour activity against M5076 reticulum cell sarcoma; type: in vivo, murine; settings: statement in words
Experimental: (§1) The purpose of these studies was to evaluate the anti-tumour properties of a group of compounds with structural similarities that may act as arylating agents. Their in vivo anti-tumour responses were assessed against two ascitic tumours, the MAC15A murine colon adenocarcinoma and the P388 murine leukaemia and various solid tumour models.
(§2) The MAC15A ascites tumour cells were transplanted into male NMR1 mice by ip inoculation at a cell density of 1 X 10^5 cells in 200µl buffer (Table 1). The P388 were transplanted ip into male BDF1 mice at cell density of 1 X 10^6 cells in 200µl buffer (Table 2). The solid tumour models included the MAC13 and MAC16 murine colon adenocarcinomas, the B16 F1 murine melanoma and the M5076 reticulum cell sarcoma.
(§3) Treatment commenced 3 days after ip transplant or, in the case of solid tumours such as MAC13 and MAC16, treatment commenced when average tumour volumes reached 40mm^3.
(§4) The animals were sacrificed after 12 days or when tumours ulcerated, tumour volume exceeded 1000mm^3 or loss of body weight exceeded 50%.
(§5) Except where otherwise stated, the compounds used were dissolved in DMSO and diluted in sterile distilled water, at appropriate concentrations before administration in a solvent volume of 200 µl. Anti-tumour responses were obtained by comparing the median survival times or tumour growth inhibition against solvent controls.

[2] = Anti-tumour activity against MAC13, tumour weight inhibition; type: in vivo, murine; settings: mouse, in vivo; Table 6; ip, per day; corn oil; read-out: maximum tolerated dose
Experimental: as §1, §2, §3, §4, §5

[3] = system: MAC13 murine colon adenocarcinoma; assay: as above; type: in vivo; settings: 12 days after im transplant, corn oil
Experimental: as §1, §2, §3, §4, §5

[4] = Anti-tumour activity in vitro; settings: statement in words
B16 murine melanoma = assay: Anti-tumour activity against B16 melanoma in C57/black mice, tumour weight inhibition; type: in vivo, female C57/black mice; settings: statement in words, refers to Table 8
B16F1-murine melanoma = settings: for % Tumour Weight Inhibition: days 1,3,5, 12 days after sc transplant, corn oil
[5] = system: MAC15A (murine adenocarcinoma colon); assay: Anti-tumour activity against MAC15A ascites tumour, survival T/C%; type: in vivo, mice; settings: ip
[6] = Anti-tumour activity against MAC16, tumour weight inhibition; type: in vivo, murine; settings: mouse, in vivo; Table 7; ip, per day; corn oil; read-out: maximum tolerated dose
Experimental: as §1, §2, §3, §4, §5

[7] = system: MAC16, murine colon adenocarcinoma; assay: as above; type: in vivo; settings: for % Tumour Weight Inhibition: day 11 after beginning of treatment, sc transplant, corn oil
Experimental: as §1, §2, §3, §4, §5

HIV-1RF = assay: Acute Infection Assay, HIV core antigen ELISA in C8166 cells; type: cell-based, human immunodeficiency virus
P388 (murine leukaemia) = assay: Anti-tumour activity against P388 ascites tumour, survival T/C%; type: in vivo, mice; settings: Table 2, mean, day 1 to 5
Experimental: as §1, §2, §3
The animals were located in both cases into groups of 5 to 8 animals.
as §4
Except where otherwise stated, the compounds used were dissolved in DMSO and diluted in sterile distilled water, at appropriate concentrations before administration in a solvent volume of 200 µl. […]
T/C% is determined as follows:- […]

## NC(=O)c1cc([N+](=O)[O-])c(Cl)c([N+](=O)[O-])c1Cl [Compound C2, 2,4-dichloro-3,5-dinitrobenzamide]
In vivo
  MTD: 2.5 mg/kg
In vitro
  CC50: 70 µM
HIV-1IIIB
  SI (Selectivity Index): 35
  IC50: 2 µM
[1]
  antitumour activity: without antitumour activity
[2]
  MTD at 12 days: 2.5 mg/kg
[3]; 1.25 mg/kg ip, days 1,2,3,4,5,6,7,8,9
  % Tumour Weight Inhibition: 17%
[3]; 2.5 mg/kg ip, days 1,2,3,4,5,6,7,8,9
  % Tumour Weight Inhibition: 51%

## O=C(O)c1cc([N+](=O)[O-])ccc1Cl [2-chloro-5-nitrobenzoic acid]
[4]
  anti-tumour activity in vitro: could not be supported in vitro
B16 murine melanoma
  anti-tumour activity in vivo: shows consideration anti-tumour activity in vivo

## NC(=O)c1cc([N+](=O)[O-])c(Cl)c([N+](=O)[O-])c1 [Compound C5, 4-chloro-3,5-dinitrobenzamide]
In vivo
  MTD at 12 days: 5 mg/kg
B16F1-murine melanoma; 1.25 mg/kg ip
  % Tumour Weight Inhibition: 27%
B16F1-murine melanoma; 2.5 mg/kg ip
  % Tumour Weight Inhibition: 18%
B16F1-murine melanoma; 5 mg/kg ip
  % Tumour Weight Inhibition: 18%
In vitro
  CC50: 50 µM
HIV-1IIIB
  SI (Selectivity Index): 10

## COC(=O)c1cc([N+](=O)[O-])c(Cl)c([N+](=O)[O-])c1Cl [Compound C3, 2,4-dichloro-3,5-dinitrobenzoic acid methyl ester]
In vitro
  CC50: 7 µM
HIV-1IIIB
  IC50: 0.3 µM
[1]
  antitumour activity: without antitumour activity

## O=C(O)c1cc([N+](=O)[O-])c(Cl)c([N+](=O)[O-])c1Cl [Compound C1, 2,4-dichloro-3,5-dinitrobenzoic acid]
In vivo
  MTD: 75 mg/kg
B16F1-murine melanoma; mouse, in vivo
  inhibition of tumour growth: effectively inhibited growth
[5]; Mus musculus, MAC15A, read-out: T/C%
  response vs control in vivo at 100 mg/kg: 243%
In vitro
  CC50: 56 µM
[6]
  MTD at 12 days: 75 mg/kg
[7]; 50 mg/kg ip, days 1,2,4,5,8
  % Tumour Weight Inhibition: 91%
[7]; 75 mg/kg ip, days 1,2,5,8
  % Tumour Weight Inhibition: 88%
[7]; statement in words, MAC16 murine colon adenocarcinoma
  inhibition of tumour growth: effectively inhibited growth
[2]
  MTD at 12 days: 75 mg/kg
[3]; 50 mg/kg ip, days 1,2,3,4,5,6,7,8,9
  % Tumour Weight Inhibition: 39%
[3]; 75 mg/kg ip, days 1,4,5
  % Tumour Weight Inhibition: 45%
Uninfected cells
  CC50: 60 µM

## O=[N+]([O-])c1cc(S(=O)(=O)O)cc([N+](=O)[O-])c1Cl [Compound S1, 4-chloro-3,5-dinitrobenzenesulfonic acid]
[5]; mouse, in vivo
  T/C%: 414%
In vitro
  CC50: 100 µM
HIV-1RF
  SI (Selectivity Index): 5 and 3
  TI: 28.6
HIV-1RF; read-out: IC50
  IC50: 3 µM
HIV-1RF; read-out: IC50 (Antiviral)
  IC50: 20 µM and 19 µM
P388 (murine leukaemia); 50 mg kg^-1 per day IP
  TC%: 259%
P388 (murine leukaemia); 100mg kg^-1 per day IP
  TC%: 203%
Uninfected cells
  CD50: 80 µM
